Results published in the NIST ThermoML archive (doi:10.1016/j.tca.2018.05.017).
± gives the expanded uncertainty stated by the source.

Settings: Crystal; DTA

## CCCCCCCC[NH+](CCCCCCCC)CCCCCCCC.[Cl-] [trioctylammonium chloride]
  Normal melting temperature: 72.20 ± 5 °C
